Reference: patent US12077503B2, “Substituted cyclic amides and their use as herbicides” (FMC CORPORATION, priority 2015, dated 2024)

What was measured:
Type in all cases: in vivo
[1] = tested on: barnyardgrass (Echinochloa crus-galli); assay: Test G Pre-Emergence Protocol; conditions: Echinochloa crus-galli, pre-emergence, 312 h, evaluated after 13 days; for pest or weed control at 15.625 g/ha: 15.625 g ai/ha, read-out: Barnyard grass damage rating (100=total damage to plant; 0=no damage to plant); for pest or weed control at 62.5 g/ha: 62.5 g ai/ha, 100=total damage to plant, 0=no damage to plant, read-out: plant damage rating, Barnyardgrass; for pest or weed control at 250 g/ha: 250 g ai/ha, read-out: Barnyardgrass damage rating (100=total damage to plant; 0=no damage to plant)
Outline: (§1)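 Herbicidal effect was rated 13 days post-application on a scale where 100 equals total damage. Spraying took place the day after sowing, using 15.625, 62.5 or 250 g/ha of compound in a 50:50 acetone/water solution with 0.5% Tween 20.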

corn (Zea mays) [2] = assay: Test G Pre-Emergence Protocol; conditions: Zea mays, pre-emergence, 312 h, evaluated after 13 days; for plant injury at 15.625 g/ha: 15.625 g ai/ha; for plant injury at 15.625 g/ha / plant injury at 250 g/ha: read-out: Corn damage rating (100=total damage to plant; 0=no damage to plant); for plant injury at 62.5 g/ha: 62.5 g ai/ha, 100=total damage to plant, 0=no damage to plant, read-out: plant damage rating, Corn; for plant injury at 250 g/ha: 250 g ai/ha
Outline: as §1

[3] = tested on: giant foxtail (Setaria faberi); assay: Test G Pre-Emergence Protocol; conditions: Setaria faberi, pre-emergence, 312 h, evaluated after 13 days; for pest or weed control at 15.625 g/ha: 15.625 g ai/ha; for pest or weed control at 15.625 g/ha / pest or weed control at 250 g/ha: read-out: Foxtail, Giant damage rating (100=total damage to plant; 0=no damage to plant); for pest or weed control at 62.5 g/ha: 62.5 g ai/ha, 100=total damage to plant, 0=no damage to plant, read-out: plant damage rating, Foxtail, Giant; for pest or weed control at 250 g/ha: 250 g ai/ha
Outline: as §1

[4] = tested on: ivy-leaved morning glory (Ipomoea hederacea); assay: Test G Pre-Emergence Protocol; conditions: Ipomoea, pre-emergence, 312 h, evaluated after 13 days; for pest or weed control at 15.625 g/ha: 15.625 g ai/ha, read-out: Morning-glory, Ivy-leaved damage rating (100=total damage to plant; 0=no damage to plant); for pest or weed control at 62.5 g/ha: 62.5 g ai/ha, 100=total damage to plant, 0=no damage to plant, read-out: plant damage rating, Morningglory, Ivy-leaved; for pest or weed control at 250 g/ha: 250 g ai/ha, read-out: Morningglory, Ivy-leaved damage rating (100=total damage to plant; 0=no damage to plant)
Outline: as §1

[5] = tested on: redroot pigweed (Amaranthus retroflexus); assay: Test G Pre-Emergence Protocol; conditions: Amaranthus retroflexus, pre-emergence, 312 h, evaluated after 13 days; for pest or weed control at 15.625 g/ha: 15.625 g ai/ha; for pest or weed control at 15.625 g/ha / pest or weed control at 250 g/ha: read-out: Pigweed, Redroot damage rating (100=total damage to plant; 0=no damage to plant); for pest or weed control at 62.5 g/ha: 62.5 g ai/ha, 100=total damage to plant, 0=no damage to plant, read-out: plant damage rating, Pigweed, Redroot; for pest or weed control at 250 g/ha: 250 g ai/ha
Outline: as §1

[6] = tested on: velvetleaf (Abutilon theophrasti); assay: Test G Pre-Emergence Protocol; conditions: Abutilon theophrasti, pre-emergence, 312 h, evaluated after 13 days; for pest or weed control at 15.625 g/ha: 15.625 g ai/ha; for pest or weed control at 15.625 g/ha / pest or weed control at 250 g/ha: read-out: Velvetleaf damage rating (100=total damage to plant; 0=no damage to plant); for pest or weed control at 62.5 g/ha: 62.5 g ai/ha, 100=total damage to plant, 0=no damage to plant, read-out: plant damage rating, Velvetleaf; for pest or weed control at 250 g/ha: 250 g ai/ha
Outline: as §1

[7] = tested on: barnyardgrass (Echinochloa crus-galli); assay: Test G Post-Emergence Protocol; conditions: Echinochloa crus-galli, post-emergence, 312 h; for pest or weed control at 15.625 g/ha: 15.625 g ai/ha, evaluated after 13 days (100=total damage to plant; 0=no damage to plant), read-out: Barnyardgrass damage rating; for pest or weed control at 62.5 g/ha: 62.5 g ai/ha, read-out: Barnyardgrass damage rating (100=total damage to plant; 0=no damage to plant); for pest or weed control at 62.5 g/ha / pest or weed control at 250 g/ha: evaluated after 13 days; for pest or weed control at 250 g/ha: 250 g ai/ha, read-out: damage to plant, Barnyardgrass (100=total damage to plant; 0=no damage to plant)
Outline: (§2)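 Eight days post-sowing, plants received a spray of test compound (acetone/water 50:50, 0.5% Tween 20) at 15.625, 62.5 or 250 g/ha. Glasshouse regime thereafter: 24/16 °C, 14 h light, 65% humidity. Assessment after 13 days on a 0–100 damage scale.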

corn (Zea mays) [8] = assay: Test G Post-Emergence Protocol; conditions: Zea mays, post-emergence, 312 h; for plant injury at 15.625 g/ha: 15.625 g ai/ha, evaluated after 13 days (100=total damage to plant; 0=no damage to plant), read-out: Corn damage rating; for plant injury at 62.5 g/ha: 62.5 g ai/ha, read-out: Corn damage rating (100=total damage to plant; 0=no damage to plant); for plant injury at 62.5 g/ha / plant injury at 250 g/ha: evaluated after 13 days; for plant injury at 250 g/ha: 250 g ai/ha, read-out: damage to plant, Corn (100=total damage to plant; 0=no damage to plant)
Outline: as §2

[9] = tested on: giant foxtail (Setaria faberi); assay: Test G Post-Emergence Protocol; conditions: Setaria faberi, post-emergence, 312 h; for pest or weed control at 15.625 g/ha: 15.625 g ai/ha, evaluated after 13 days (100=total damage to plant; 0=no damage to plant), read-out: Foxtail, Giant damage rating; for pest or weed control at 62.5 g/ha: 62.5 g ai/ha, read-out: Foxtail, Giant damage rating (100=total damage to plant; 0=no damage to plant); for pest or weed control at 62.5 g/ha / pest or weed control at 250 g/ha: evaluated after 13 days; for pest or weed control at 250 g/ha: 250 g ai/ha, read-out: damage to plant, Foxtail, Giant (100=total damage to plant; 0=no damage to plant)
Outline: as §2

[10] = tested on: ivy-leaved morning glory (Ipomoea hederacea); assay: Test G Post-Emergence Protocol; conditions: Ipomoea, post-emergence, 312 h; for pest or weed control at 15.625 g/ha: 15.625 g ai/ha, evaluated after 13 days (100=total damage to plant; 0=no damage to plant), read-out: Morningglory, Ivy-leaved damage rating; for pest or weed control at 62.5 g/ha: 62.5 g ai/ha, read-out: Morningglory, Ivy-leaved damage rating (100=total damage to plant; 0=no damage to plant); for pest or weed control at 62.5 g/ha / pest or weed control at 250 g/ha: evaluated after 13 days; for pest or weed control at 250 g/ha: 250 g ai/ha, read-out: damage to plant, Morningglory, Ivy-leaved (100=total damage to plant; 0=no damage to plant)
Outline: as §2

[11] = tested on: redroot pigweed (Amaranthus retroflexus); assay: Test G Post-Emergence Protocol; conditions: Amaranthus retroflexus, post-emergence, 312 h; for pest or weed control at 15.625 g/ha: 15.625 g ai/ha, evaluated after 13 days (100=total damage to plant; 0=no damage to plant), read-out: Pigweed, Redroot damage rating; for pest or weed control at 62.5 g/ha: 62.5 g ai/ha, read-out: Pigweed, Redroot damage rating (100=total damage to plant; 0=no damage to plant); for pest or weed control at 62.5 g/ha / pest or weed control at 250 g/ha: evaluated after 13 days; for pest or weed control at 250 g/ha: 250 g ai/ha, read-out: damage to plant, Pigweed, Redroot (100=total damage to plant; 0=no damage to plant)
Outline: as §2

[12] = tested on: velvetleaf (Abutilon theophrasti); assay: Test G Post-Emergence Protocol; conditions: Abutilon theophrasti, post-emergence, 312 h; for pest or weed control at 15.625 g/ha: 15.625 g ai/ha, evaluated after 13 days (100=total damage to plant; 0=no damage to plant), read-out: Velvetleaf damage rating; for pest or weed control at 62.5 g/ha: 62.5 g ai/ha, read-out: Velvetleaf damage rating (100=total damage to plant; 0=no damage to plant); for pest or weed control at 62.5 g/ha / pest or weed control at 250 g/ha: evaluated after 13 days; for pest or weed control at 250 g/ha: 250 g ai/ha, read-out: damage to plant, Velvetleaf (100=total damage to plant; 0=no damage to plant)
Outline: as §2

SMILES	pest or weed control at 15.625 g/ha [1] [%]	pest or weed control at 62.5 g/ha [1] [%]	pest or weed control at 250 g/ha [1] [%]	plant injury at 15.625 g/ha (corn (Zea mays) [2]) [%]	plant injury at 62.5 g/ha (corn (Zea mays) [2]) [%]	plant injury at 250 g/ha (corn (Zea mays) [2]) [%]	pest or weed control at 15.625 g/ha [3] [%]	pest or weed control at 62.5 g/ha [3] [%]	pest or weed control at 250 g/ha [3] [%]	pest or weed control at 15.625 g/ha [4] [%]	pest or weed control at 62.5 g/ha [4] [%]	pest or weed control at 250 g/ha [4] [%]	pest or weed control at 15.625 g/ha [5] [%]	pest or weed control at 62.5 g/ha [5] [%]	pest or weed control at 250 g/ha [5] [%]	pest or weed control at 15.625 g/ha [6] [%]	pest or weed control at 62.5 g/ha [6] [%]	pest or weed control at 250 g/ha [6] [%]	pest or weed control at 15.625 g/ha [7] [%]	pest or weed control at 62.5 g/ha [7] [%]	also measured
CSc1ccccc1NC(=O)[C@@H]1C(=O)N(C)C[C@H]1c1ccc(C(F)(F)F)nc1 (racemic) [Compound 1584]	0	0	90	0	0	70	0	50	90	0	0	10	0	0	60	0	0	20	0	0	pest or weed control at 250 g/ha [7]: 70%; plant injury at 15.625 g/ha (corn (Zea mays) [8]): 0%; plant injury at 62.5 g/ha (corn (Zea mays) [8]): 10%; plant injury at 250 g/ha (corn (Zea mays) [8]): 0%; pest or weed control at 15.625 g/ha [9]: 0%; pest or weed control at 62.5 g/ha [9]: 40%; pest or weed control at 250 g/ha [9]: 80%; pest or weed control at 15.625 g/ha [10]: 0%; pest or weed control at 62.5 g/ha [10]: 20%; pest or weed control at 250 g/ha [10]: 10%; pest or weed control at 15.625 g/ha [11]: 0%; pest or weed control at 62.5 g/ha [11]: 0%; pest or weed control at 250 g/ha [11]: 40%; pest or weed control at 15.625 g/ha [12]: 0%; pest or weed control at 62.5 g/ha [12]: 0%; pest or weed control at 250 g/ha [12]: 20%
CN1C[C@@H](c2ccc(C(F)(F)F)cc2)[C@H](C(=O)Nc2cc(F)c(F)c(F)c2F)C1=O (racemic) [Compound 1625]	0	0	40	0	0	0	0	10	80	0	10	10	0	20	10	0	0	10	0	30	pest or weed control at 250 g/ha [7]: 40%; plant injury at 15.625 g/ha (corn (Zea mays) [8]): 0%; plant injury at 62.5 g/ha (corn (Zea mays) [8]): 0%; plant injury at 250 g/ha (corn (Zea mays) [8]): 10%; pest or weed control at 15.625 g/ha [9]: 0%; pest or weed control at 62.5 g/ha [9]: 50%; pest or weed control at 250 g/ha [9]: 80%; pest or weed control at 15.625 g/ha [10]: 0%; pest or weed control at 62.5 g/ha [10]: 0%; pest or weed control at 250 g/ha [10]: 20%; pest or weed control at 15.625 g/ha [11]: 0%; pest or weed control at 62.5 g/ha [11]: 30%; pest or weed control at 250 g/ha [11]: 50%; pest or weed control at 15.625 g/ha [12]: 0%; pest or weed control at 62.5 g/ha [12]: 10%; pest or weed control at 250 g/ha [12]: 40%
